Data reported in patent US12208088B2 (Genentech, Inc., priority 2018, dated 2025).
Structures can show the parent of a compound that is named as a salt.

How the values were obtained:
[1] = test system: primary human pan T cells; assay: Human T-cell IL2 induction assay; format: cell-based; details: IL-2, anti-CD3/anti-CD28 stimulated T cells
Protocol: Example B3: Human T-Cell IL2 Induction Assay
Anti-CD3 and anti-CD28 activates TCR signaling in primary human pan T cells leading to IL-2 promoter induction. Secreted IL-2 in cell culture supernatant is detected by electrochemiluminescence using a capture antibody against IL-2 and an anti-IL-2 antibody labeled with SULFO-tag.
See www.mesoscale.com for additional electrochemiluminescence technology information.
Incubate primary human pan T cells with varying concentrations of test compounds for 30 minutes in a humidified incubator at 37° C. and 5% CO2. Transfer cells to a plate pre-coated with a fixed concentration of anti-human CD3 (determined separately for each donor lot) and add soluble anti-human CD28 (final concentration=1 μg/ml). Stimulate cells in a humidified incubator at 37° C. and 5% CO2 for 4 hours. Transfer 25 μl of supernatant to a MSD single spot plate pre-coated with an anti-human IL-2 antibody. Incubate MSD plate overnight at 4° C. with gentle shaking. Wash MSD plate 4× with wash buffer. Add SULFO-tagged detection antibody at a 1:50 dilution and incubate at room temperature shaking for 2 hours. Wash MSD plate 4× with wash buffer and add […] 2×MSD read buffer. Read on an MSD instrument. Normalize data to stimulated/untreated controls to calculate % activity at each concentration of compound.
• Frozen Primary Human Pan-T Cells (StemCell Technologies #70024) • anti-human CD3 (OKT3 clone) (eBioscience #16-0037-81) • anti-human CD28 (CD28.2 clone) (BD #555725) • 96-well Human IL-2 tissue culture kit (MSD #K151AHB-4) Instrumentation: • Biomek FX for liquid handling (Beckman Coulter) • MSD SECTOR S 600 (Meso Scale Discovery)
Exemplary compounds of Formula (I) were tested in the human T-cell IL-2 induction assays. The % increase measured for IL-2 in cells treated by the test compounds relative to untreated cells are provided in Table B2 for certain compounds.

HPK1 = HPK1 (Homo sapiens (Human), UniProt Q92918); assay: HPK1 Lantha binding assay ("Lanth"); details: binding assays; Morrison Ki fit
Sequence of HPK1 (Q92918 1-346 limits assumed): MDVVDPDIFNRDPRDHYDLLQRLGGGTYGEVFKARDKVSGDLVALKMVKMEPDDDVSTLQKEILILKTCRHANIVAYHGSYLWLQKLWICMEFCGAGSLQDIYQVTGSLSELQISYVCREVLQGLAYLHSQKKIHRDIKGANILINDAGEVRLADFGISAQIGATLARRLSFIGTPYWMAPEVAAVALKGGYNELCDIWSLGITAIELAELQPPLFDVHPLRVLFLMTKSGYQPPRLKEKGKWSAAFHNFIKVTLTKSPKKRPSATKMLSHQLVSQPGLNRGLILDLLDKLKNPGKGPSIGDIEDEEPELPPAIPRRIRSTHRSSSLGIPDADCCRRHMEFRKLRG
How it was run: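 TR-FRET binding competition using 2 nM HPK1, 2 nM Eu-anti-GST antibody and 15 nM Tracer222 at 23 °C. Compound was incubated 1 h with enzyme and antibody, then 1 h after tracer addition, with an 11-point 5-fold dilution series. Ki obtained from a Morrison fit that corrects for tracer concentration and Kd.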

| Structure (SMILES) | Ki (HPK1) | also measured |
| --- | --- | --- |
| Cc1c(CC#N)ccnc1-c1cc(N)cc(-c2cnc3c(c2Cl)[C@@]2(CC[C@@](C)(C#N)C2)CN3)c1 (stereo in doubt) [Compound 274b, (1S,3R)-5′-(3-Amino-5-(4-(cyanomethyl)-3-methylpyridin-2-yl)phenyl)-4′-chloro-3-methyl-1′,2′-dihydrospiro[cyclopentane-1,3′-pyrrolo[2,3-b]pyridine]-3-carbonitrile] | – | % IL relative to untreated cells ([1]; assayed concentration 0.926 μM): 564% |
| CC[C@H]1C[C@@]12CNc1ncc(-c3ccc(N)c(C(=O)N(C)C)c3F)cc12 [Compound 243a, 6-Amino-3-((1R,2S)-2-ethyl-1′,2′-dihydrospiro[cyclopropane-1,3′-pyrrolo[2,3-b]pyridin]-5′-yl)-2-fluoro-N,N-dimethylbenzamide] | – | % IL relative to untreated cells ([1]; assayed concentration 2.8 μM): 111% |
| CN(C)C(=O)c1c(N)ccc(-c2cnc3c(c2Cl)[C@]2(CC[C@](C)(C#N)CC2)CN3)c1F [Compound 250a, 6-Amino-3-((1s,4s)-4′-chloro-4-cyano-4-methyl-1′,2′-dihydrospiro[cyclohexane-1,3′-pyrrolo[2,3-b]pyridin]-5′-yl)-2-fluoro-N,N-dimethylbenzamide] | 0.00849 µM | % IL relative to untreated cells ([1]; assayed concentration 25 μM): 504% |
| CN(C)C(=O)c1c(N)ccc(-c2cnc3c(c2Cl)[C@]2(CC[C@@H](CO)C2)CN3)c1F [Compound 259c, 6-Amino-3-((1R,3R)-4′-chloro-3-(hydroxymethyl)-1′,2′-dihydrospiro[cyclopentane-1,3′-pyrrolo[2,3-b]pyridin]-5′-yl)-2-fluoro-N,N-dimethylbenzamide] | 0.003 µM | % IL relative to untreated cells ([1]; assayed concentration 8.3 μM): 604% |
| Cc1c(CC#N)ccnc1-c1cccc(-c2cnc3c(c2Cl)[C@@]2(CC[C@@](C)(C(N)=O)C2)CN3)c1F [Compound 267b, (1S,3R)-4′-Chloro-5′-(3-(4-(cyanomethyl)-3-methylpyridin-2-yl)-2-fluorophenyl)-3-methyl-1′,2′-dihydrospiro[cyclopentane-1,3′-pyrrolo[2,3-b]pyridine]-3-carboxamide] | – | % IL relative to untreated cells ([1]; assayed concentration 0.926 μM): 298% |
| c1nc2c(cc1-c1c[nH]c3ccc(C4CC4)cc13)C1(CC1)CN2 [Compound 328, 5′-(5-Cyclopropyl-1H-indol-3-yl)-1′,2′-dihydrospiro[cyclopropane-1,3′-pyrrolo[2,3-b]pyridine]] | 0.289 µM | – |
| c1cc2[nH]cc(-c3cnc4c(c3)C3(CC3)CN4)c2cn1 [Compound 329, 5-(1H-Pyrrolo[3,2-c]pyridin-3-yl)spiro[1,2-dihydropyrrolo[2,3-b]pyridine-3,1′-cyclopropane]] | 0.09 µM | – |
| CS(=N)(=O)c1ccc2[nH]cc(-c3cnc4c(c3)C3(CC3)CN4)c2c1 (centres unmarked) [Compound 331, (3-(1′,2′-Dihydrospiro[cyclopropane-1,3′-pyrrolo[2,3-b]pyridin]-5′-yl)-1H-indol-5-yl)(imino)(methyl)-γ6-sulfanone] | 0.243 µM | – |
| c1ccc2c(c1)nnn2-c1cnc2c(c1)C1(CC1)CN2 [Compound 332, 5-(Benzotriazol-1-yl)spiro[1,2-dihydropyrrolo[2,3-b]pyridine-3,1′-cyclopropane]] | 0.57 µM | – |
| c1cc2c(-c3cnc4c(c3)C3(CC3)CN4)c[nH]c2cn1 [Compound 333, 5-(1H-Pyrrolo[2,3-c]pyridin-3-yl)spiro[1,2-dihydropyrrolo[2,3-b]pyridine-3,1′-cyclopropane]] | 0.0423 µM | – |
| c1nnc(-c2ccc3[nH]cc(-c4cnc5c(c4)C4(CC4)CN5)c3c2)o1 [Compound 334, 2-(3-(1′,2′-Dihydrospiro[cyclopropane-1,3′-pyrrolo[2,3-b]pyridin]-5′-yl)-1H-indol-5-yl)-1,3,4-oxadiazole Formate Salt] | 0.048 µM | – |
| Cn1cnnc1-c1ccc2[nH]cc(-c3cnc4c(c3)C3(CC3)CN4)c2c1 [Compound 335, 5′-(5-(4-Methyl-4H-1,2,4-triazol-3-yl)-1H-indol-3-yl)-1′,2′-dihydrospiro[cyclopropane-1,3′-pyrrolo[2,3-b]pyridine]] | 0.13 µM | – |
| Cc1cc2[nH]cc(-c3cnc4c(c3)C3(CC3)CN4)c2cc1-c1cnn(C)c1 [Compound 336, 5′-(6-Methyl-5-(1-methyl-1H-pyrazol-4-yl)-1H-indol-3-yl)-1′,2′-dihydrospiro[cyclopropane-1,3′-pyrrolo[2,3-b]pyridine]] | 0.0466 µM | – |
| Fc1ccc2[nH]cc(-c3cnc4c(c3)C3(CC3)CN4)c2c1 [Compound 338, 5′-(5-Fluoro-1H-indol-3-yl)-1′,2′-dihydrospiro[cyclopropane-1,3′-pyrrolo[2,3-b]pyridine]] | 0.0797 µM | – |
| CN(C)C(=O)c1ccc2[nH]cc(-c3cnc4c(c3)C3(CC3)CN4)c2c1 [Compound 339, 3-(1′,2′-Dihydrospiro[cyclopropane-1,3′-pyrrolo[2,3-b]pyridin]-5′-yl)-N,N-dimethyl-1H-indole-5-carboxamide] | 0.373 µM | – |
| CN(c1cc(C#N)cc2c(-c3cnc4c(c3)C3(CC3)CN4)c[nH]c12)S(C)(=O)=O [Compound 340, N-(5-Cyano-3-(1′,2′-dihydrospiro[cyclopropane-1,3′-pyrrolo[2,3-b]pyridin]-5′-yl)-1H-indol-7-yl)-N-methylmethanesulfonamide] | 0.0148 µM | – |
| CN(c1cc(C#N)cc2c(-c3cnc4c(c3)C3(CC3)CN4)cn(C)c12)S(C)(=O)=O [Compound 341, N-(5-Cyano-3-(1′,2′-dihydrospiro[cyclopropane-1,3′-pyrrolo[2,3-b]pyridin]-5′-yl)-1-methyl-1H-indol-7-yl)-N-methylmethanesulfonamide] | 0.0124 µM | – |
| N#CCc1ccc2[nH]cc(-c3cnc4c(c3)C3(CC3)CN4)c2c1 [Compound 342, 2-(3-(1′,2′-Dihydrospiro[cyclopropane-1,3′-pyrrolo[2,3-b]pyridin]-5′-yl)-1H-indol-5-yl)acetonitrile] | 0.0734 µM | – |
| CN(c1ccc2c(-c3cnc4c(c3)C3(CC3)CN4)c[nH]c2c1)c1cnn(C)c1 [Compound 343, 3-(1′,2′-Dihydrospiro[cyclopropane-1,3′-pyrrolo[2,3-b]pyridin]-5′-yl)-N-methyl-N-(1-methyl-1H-pyrazol-4-yl)-1H-indol-6-amine] | 0.074 µM | – |
| N#Cc1ccc2ccn(-c3cnc4c(c3)C3(CC3)CN4)c2c1 [Compound 344, 1-(1′,2′-Dihydrospiro[cyclopropane-1,3′-pyrrolo[2,3-b]pyridin]-5′-yl)-1H-indole-6-carbonitrile] | 0.59 µM | – |
| Cn1cc(Nc2ccc3c(-c4cnc5c(c4)C4(CC4)CN5)c[nH]c3c2)cn1 [Compound 345, 3-(1′,2′-Dihydrospiro[cyclopropane-1,3′-pyrrolo[2,3-b]pyridin]-5′-yl)-N-(1-methyl-1H-pyrazol-4-yl)-1H-indol-6-amine] | 0.094 µM | – |
